# Columns and labels:
# [1] = Photophysical parameters of fluorophores in glycerol; format: physicochemical
# Experimental: FP analogues (20 μM) were prepared in glycerol:H2O mixture with increasing glycerol concentrations. In addition, fluorescence intensity in 1,4-dioxane was measured to evaluate their response to polarity. Fluorescence measurement was carried out using a Tecan infinite M1000Pro fluorescence microplate reader at excitation and emission wavelengths as indicated. All readings were normalized against the fluorescence intensity in 100% glycerol as 1. Error bars: standard error (n=3).
# FP analogues (20 μM) were prepared in glycerol. Spectra were collected with emission wavelength of 420 nm for 1, 525 nm for 2, 620 nm for 3, 3a and 3b. All measurements were carried out using a Tecan infinite M1000Pro fluorescence microplate reader.
# FP analogues (20 μM) were prepared in glycerol. Spectra were collected with excitation wavelength of 370 nm for 1, 455 nm for 2, 530 nm for 3 and 3b, 485 nm for 3a. All measurements were carried out using a Tecan infinite M1000Pro fluorescence microplate reader.
# FP analogues (10 μM) were prepared in glycerol. Spectra were collected with 10 mm quartz cuvette. All measurements were carried out using Agilent 300 UV-Vis spectrophotometer.
# However, the quantum yield (QY, Φ=0.001 for 1 and Φ=0.027 for 2 in glycerol, Table 2) was much lower than that of a GFP (Φ=0.79).
# SOD1-A4V-Halo [2] = target: T1, SOD1-A4V-Halo (Homo sapiens, UniProt P00441, A5V); test: In vitro heat-induced aggregation of SOD1-A4V-Halo conjugates; format: biochemical
# Excerpt: (§1) (B-C) Excitation and emission spectra of 4 (with misfolded oligomers of SOD1-A4V-Halo) and 5 (with insoluble aggregates of SOD1-A4V-Halo).
# The inventors installed Halo-tag reactive warhead to 2, resulting in 5.
# Target sequence in this assay (P00441 with tags, fused parts or gaps A5V): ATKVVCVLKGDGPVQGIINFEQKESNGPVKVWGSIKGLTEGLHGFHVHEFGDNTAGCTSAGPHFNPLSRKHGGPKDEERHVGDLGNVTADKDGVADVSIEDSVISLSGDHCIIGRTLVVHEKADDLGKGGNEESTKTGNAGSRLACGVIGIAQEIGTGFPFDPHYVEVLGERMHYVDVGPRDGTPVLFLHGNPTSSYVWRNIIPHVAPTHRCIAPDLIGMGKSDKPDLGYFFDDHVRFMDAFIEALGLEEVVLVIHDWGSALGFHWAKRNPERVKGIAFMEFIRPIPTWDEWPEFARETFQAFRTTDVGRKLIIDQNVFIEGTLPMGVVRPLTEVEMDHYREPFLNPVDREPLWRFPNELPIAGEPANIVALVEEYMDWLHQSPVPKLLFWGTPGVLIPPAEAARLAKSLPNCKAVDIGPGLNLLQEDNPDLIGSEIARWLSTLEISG
# Htt-110Q-Halo = target: T2, Htt-110Q-Halo (Homo sapiens, UniProt P42858); test: Two-color imaging of Htt-110Q-Halo in HEK293T cells; format: cell-based
# T2 construct: using the Huntingtin exon 1 protein (Htt) with expansion of a polyglutamine tract within its N-terminal domain; expressed in transfected cells; host or cells: HEK293T
# T2 sequence (P42858 with tags, fused parts or gaps): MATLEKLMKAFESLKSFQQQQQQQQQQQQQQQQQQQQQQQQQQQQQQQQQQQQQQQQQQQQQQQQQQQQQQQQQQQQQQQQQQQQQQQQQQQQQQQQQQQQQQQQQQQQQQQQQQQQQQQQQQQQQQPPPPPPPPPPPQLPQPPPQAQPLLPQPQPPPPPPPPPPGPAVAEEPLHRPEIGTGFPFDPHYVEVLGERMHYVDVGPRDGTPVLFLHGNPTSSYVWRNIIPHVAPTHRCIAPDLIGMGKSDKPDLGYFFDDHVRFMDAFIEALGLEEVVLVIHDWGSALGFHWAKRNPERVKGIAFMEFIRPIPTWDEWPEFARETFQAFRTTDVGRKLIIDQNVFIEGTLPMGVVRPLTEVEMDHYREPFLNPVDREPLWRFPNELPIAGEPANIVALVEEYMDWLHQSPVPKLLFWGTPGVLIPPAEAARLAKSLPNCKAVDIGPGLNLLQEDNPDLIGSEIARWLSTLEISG
# Excerpt: as §1
# (§2) Combination of 4 and 5 enables a two-color imaging strategy to differentiate insoluble aggregates from soluble oligomers. The inventors carried out live cell imaging experiments, wherein 4 or 5 was used to visualize aggregation of POI-Halo fusion proteins in HEK293T cells. […] To this end, the inventors labeled HEK293T cells expressing SOD1-A4V-Halo simultaneously with 4 and 5 (both at 0.5 μM) for 24 h and treated cells with 5 μM MG132 for 8 h. […] The inventors further carried out experiments using Htt-PolyQ with 110 glutamine repeats (Htt-110Q-Halo).
# SOD1-A4V-Halo [3] = target: T1, SOD1-A4V-Halo; test: Two-color imaging of SOD1-A4V-Halo in HEK293T cells under MG132; format: cell-based; set-up: expressed in transfected cells; host or cells: HEK293T; details: 4 and 5 both at 0.5 μM, 5 μM MG132 for 8 h
# Excerpt: as §1, §2
# Target sequence in this assay (P00441 with tags, fused parts or gaps A5V limits assumed): as the sequence (P00441 with tags, fused parts or gaps A5V) above
# SOD1(V31A)-Halo [4] = target: SOD1(V31A)-Halo (UniProt P00441+P0A3G2, A155T/A167V/A172T/A224E/C128F/C176G/D78G/E160K/E257K/H272N/K175M/K195N/L47V/L88M/N227D/S58T/T264A/V32A/Y273L/Y87F); test: In vitro heat-induced aggregation of purified SOD1(V31A)-Halo-4 conjugate; format: biochemical; set-up: made in house; host or cells: E. coli BL21 DE3* (pET29b; pBAD σ32-I54N co-expressed)
# Sequence of SOD1(V31A)-Halo (UniProt P00441+P0A3G2, A155T/A167V/A172T/A224E/C128F/C176G/D78G/E160K/E257K/H272N/K175M/K195N/L47V/L88M/N227D/S58T/T264A/V32A/Y273L/Y87F) (P00441+P0A3G2 fused with the stated changes): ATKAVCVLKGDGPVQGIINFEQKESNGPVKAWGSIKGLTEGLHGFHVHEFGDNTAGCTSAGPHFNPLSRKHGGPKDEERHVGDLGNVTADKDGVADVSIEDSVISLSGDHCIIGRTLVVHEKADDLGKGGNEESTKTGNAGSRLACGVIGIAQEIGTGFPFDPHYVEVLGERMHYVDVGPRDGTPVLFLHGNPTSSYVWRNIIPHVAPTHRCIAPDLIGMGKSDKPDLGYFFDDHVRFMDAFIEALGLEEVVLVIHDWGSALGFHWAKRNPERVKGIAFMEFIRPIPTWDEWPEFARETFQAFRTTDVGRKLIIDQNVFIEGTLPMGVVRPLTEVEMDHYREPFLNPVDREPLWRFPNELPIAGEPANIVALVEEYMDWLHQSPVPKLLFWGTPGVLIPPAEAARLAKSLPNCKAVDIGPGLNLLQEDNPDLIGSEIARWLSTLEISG
# Experimental: (§3) (a) Purified SOD1(V31A)-Halo and Halo-Tag proteins (42 μM), both of which were conjugated with 4 (21 μM), were incubated at varying temperatures (25, 37, 38.9, 41.8, 45.6, 50.7, 54.5, 57.2, and 59° C.). As control samples, 4 (21 μM) was prepared in buffer, 1,4-dioxane, glycerol, BSA (2 mg/mL). Fluorescence intensity was recorded at Ex=530 nm/Em=600 nm. All readings were normalized to intensity of the Halo-Tag-4 conjugate at 25° C. Fluorescence of protein samples was also visualized via UV transilluminator. In addition, protein samples were centrifuged at 21,000 g for 30 min at 4° C. to analyze their insoluble fraction using fluorescence of 4 as signal on SDS-PAGE gel. […] This fluorescence was not originated from aggregation of Halo-Tag domain, as evidenced by the low fluorescence of the Halo-4 conjugate and lack of significant insoluble fraction at these temperatures. Error bars: standard error (n=3). (b) Purified SOD1(V31A)-Halo and Halo-Tag proteins ([…]) were conjugated with 4 (21 μM) and incubated at 54.5° C. Fluorescence was recorded using Agilent Carey Eclipse fluorescence spectrophotometer with temperature control. Buffer condition: 50 mM Tris-HCl, pH 7.5, 100 mM NaCl, 83 mM EDTA. Parameters for fluorescence measurement: 4 (Ea=530 nm/Em=600 nm).
# (§4) (a) Purified SOD1(V31A)-Halo (42 μM) was conjugated with 4 (21 μM) and incubated at 54.5° C. Fluorescence was recorded using Agilent Carey Eclipse fluorescence spectrophotometer with temperature control. Turbidity was recorded using Agilent 300 UV-Vis spectrophotometer. Buffer condition: 50 mM Tris-HCl, pH 7.5, 100 mM NaCl, 83 mM EDTA. (b) Kinetics of fluorescence increases from the SOD1(V31A)-Halo-4 conjugate (red curve) was compared to the kinetics of protein misfolding (black curve) as measured by Tryptophan fluorescence change. Fluorescence was recorded using Agilent Carey Eclipse fluorescence spectrophotometer with temperature control. Experiments were carried out at 54.5° C. Parameters for fluorescence measurement: 4 (Ex=530 nm/Em=600 nm) and Trp (Ex=290 nm/Em=330 and 345 nm). Error bars: standard error (n=3).
# SOD1(V31A)-Halo [5] = target: SOD1(V31A)-Halo (Rhodococcus rhodochrous, UniProt P0A3G2, A155T/A167V/A172T/A224E/C128F/C176G/D78G/E160K/E257K/H272N/K175M/K195N/L47V/L88M/N227D/P291S/S58T/T264A/Y273L/Y87F); test: as above; format: biochemical; set-up: made in house; host or cells: E. coli BL21 DE3* (pET29b; pBAD σ32-I54N co-expressed)
# Sequence of SOD1(V31A)-Halo (Rhodococcus rhodochrous, UniProt P0A3G2, A155T/A167V/A172T/A224E/C128F/C176G/D78G/E160K/E257K/H272N/K175M/K195N/L47V/L88M/N227D/P291S/S58T/T264A/Y273L/Y87F) (P0A3G2 other isoform, or with tags, fused parts or gaps with the stated changes): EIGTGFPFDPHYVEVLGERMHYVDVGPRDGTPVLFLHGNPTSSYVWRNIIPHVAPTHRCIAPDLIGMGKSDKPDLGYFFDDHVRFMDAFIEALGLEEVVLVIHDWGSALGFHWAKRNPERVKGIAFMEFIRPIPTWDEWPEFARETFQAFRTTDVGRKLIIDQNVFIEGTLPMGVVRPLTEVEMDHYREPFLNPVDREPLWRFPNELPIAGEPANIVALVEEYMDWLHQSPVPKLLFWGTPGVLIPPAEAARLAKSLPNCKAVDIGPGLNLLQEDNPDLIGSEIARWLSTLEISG
# Experimental: as §3, §4
# [6] = 4 with misfolded oligomers, 5 with insoluble aggregates of SOD1-A4V-Halo
smiles,measurement,setting,value
"CN(C)c1ccc(/C=C2N=C(/C=C/c3ccc(N(CCO)CCO)cc3)N(CC(=O)N[C@H]3CC[C@H](C(=O)NCCOCCOCCCCCCCl)CC3)C\2=O)cc1 [Compound 4, (1r,4r)-4-(2-((Z)-2-((E)-4-(bis(2-hydroxyethyl)amino)styryl)-4-(4-(dimethylamino)benzylidene)-5-oxo-4,5-dihydro-1H-imidazol-1-yl)acetamido)-N-(2-(2-((6-chlorohexyl)oxy)ethoxy)ethyl)cyclohexanecarboxamide]",fluorescent properties of 4 compared with 3,[1],identical to 3
same,B (brightness),[1]; calculated using B = Φϵ,"8,734 M^−1cm^−1"
same,Φ (quantum yield),[1]; in glycerol,0.230
same,λem,[1]; in glycerol,628 nm
same,λex,[1]; in glycerol,530 nm
same,λabs,[1]; maximum absorbance measured in glycerol,534 nm
same,ϵ (extinction coefficient),[1]; measured in glycerol,"36,241 M^−1cm^−1"
same,Em,SOD1-A4V-Halo [2]; [6],600 nm
same,Ex,SOD1-A4V-Halo [2]; [6],530 nm
same,kinetics of fluorescence increase versus turbidity,SOD1-A4V-Halo [2]; SOD1-A4V-Halo conjugate,faster than that of turbidity
same,fluorescence of Htt-110Q-Halo inclusions,Htt-110Q-Halo,exhibit fluorescence from both 4 and 5
same,fluorescence of perinuclear SOD1 A4V-Halo granules,SOD1-A4V-Halo [3],only exhibited red fluorescence from 4
same,fluorescence of the SOD1(V31A)-Halo-4 conjugate under heat,SOD1(V31A)-Halo [4],increased in the absence of insoluble protein aggregates
same,kinetics of fluorescence increase versus turbidity,SOD1(V31A)-Halo [4]; 54.5° C.,much faster than the kinetics of turbidity
same,kinetics of fluorescence versus protein misfolding,SOD1(V31A)-Halo [4]; 54.5° C.,coincided with the kinetics of protein misfolding
same,fluorescence of the Halo-4 conjugate control under heat,SOD1(V31A)-Halo [5],remained non-fluorescent under all heat conditions
